# Experimental data taken from US20230331690A1, “THC DERIVATIVES, ORAL DOSAGE FORMS COMPRISING SAME, USES THEREOF FOR TREATING DISEASES AND DISORDERS AND SYNTHESIS THEREOF” (BAR-ILAN UNIVERSITY, priority 2020, published 2023).
# “And” between values parts separate entries of the source, which are not always exact repeats. Equal entries are not always repeated.
# Experiments:
# hind paw of mice = assay: Electronic Von-Frey mechanical sensitivity (withdrawal thresholds) after Paclitaxel-induced neuropathic pain; assay type: in vivo; conditions: for Withdrawal test, test 1 / Withdrawal test, test 4 / Withdrawal test, test 5 / Withdrawal test, test 2 / Withdrawal test, test 3 / Withdrawal test, test 6: per animal; for Withdrawal test, All group average: 8 mice; for Withdrawal test, Average: average per animal; for Withdrawal test, Change from b.l.: group average vs baseline; for Withdrawal test, test 6: additional test
# Experimental: Mechanical sensitivity was evaluated by measuring the changes in tactile sensitivity in the hind paw of mice, using an Electronic Von-Frey apparatus (EVF). Withdrawal thresholds were measured, using the EVF apparatus, first at baseline (time=0) and then following drug, in a few periods after administration, by applying an accurate force on specific areas of the skin and measuring the needed force for the mouse to lift its paw.
# Paclitaxel was utilized for the stimulation of a chemotherapy-induced neuropathic pain. Paclitaxel is anti-cancer chemotherapy drug classified as a “plant alkaloid” and an “antimicrotubule agent”.
# Mice were divided into three groups of 8 mice each, as follows: • (a) Group no. 1—Morphine as positive control; • (b) Group no. […] 3—synthetic THC derivative 9-Desmethyl THC.
# A portion of Paclitaxel was administered to each mouse by i.p. injection, on days 1, 3, 5 and 7 from the beginning of the experiment. At day 8, withdrawal thresholds were measured first at baseline (time=0), thereafter each mouse received a single portion of a drug substance, at 5 mg/Kg body weight concentration, by oral gavage and measurements took place.
# The first checking point was 1 hour after administration of each drug. For every mouse, its threshold for the pain perception in which it removes its hind paw after the stabbing of the Von-Frey hair has been checked. Needed force (in gram force units) was measured each time and was recorded for every checking. This test was repeated 5 times for each mouse consecutively.
# This procedure was repeated for all the three groups. The next checking point was 3 hours after administration, where the last withdrawal thresholds measurements were performed on the next morning, on day 9, which was 24 hours after administration.
# Morphine was utilized as a positive control where group no. 1 mice received morphine (dissolved in a saline solution (0.9%) and injected subcutaneously) as an analgesic agent, prior to the mechanical sensitivity tests.
# The tests described in this example are complicated and depend on numerous factors. Accordingly, results above 10.0 gram force (marked with an asterisk) were not included in the evaluation of the experimental data. In cases of exceptional results, an additional test was performed mouse (test 6) in order to assure the exceptional result.
# mice = assay: Hot plate assay, withdrawal reflex latency (WRL); assay type: in vivo; conditions: for Hot plate Time: per animal
# [1] = t = 1 h after 5 mg/Kg, * values excluded
# [2] = t = 3 h after 5 mg/Kg, * values excluded
# [3] = t = 24 h after 5 mg/Kg, * values excluded
structure (smiles),measurement,setting,value
"CN1CC[C@]23c4c5ccc(O)c4O[C@H]2[C@@H](O)C=C[C@H]3[C@H]1C5 [Morphine, reference compound]","Withdrawal test, test 1","hind paw of mice; t = 1 h after 5 mg/Kg single dose (oral gavage; morphine s.c.), * values >10.0 excluded from evaluation",4.4 gram force (2×) and 8.5 gram force and 8.4 gram force and 5.2 gram force and 5.9 gram force and 4.7 gram force and 5.6 gram force
same,"Withdrawal test, All group average",hind paw of mice; t = 1 h after 5 mg/Kg,6.21 gram force
same,"Withdrawal test, Average",hind paw of mice; t = 1 h after 5 mg/Kg,5.68 gram force (2×) and 7.80 gram force and 7.17 gram force and 6.62 gram force and 6.02 gram force and 5.26 gram force and 5.45 gram force
same,"Withdrawal test, Change from b.l.",hind paw of mice; t = 1 h after 5 mg/Kg,+6.7%
same,"Withdrawal test, Change from b.l.","hind paw of mice; t = 1 h after 5 mg/Kg, listed as morphine",6.7%
same,"Withdrawal test, test 4",hind paw of mice; t = 1 h after 5 mg/Kg,9.1 gram force and 8.3 gram force and 7.4 gram force and 6.5 gram force and 5.0 gram force and 4.2 gram force and 5.3 gram force and 4.4 gram force
same,"Withdrawal test, test 5",hind paw of mice; t = 1 h after 5 mg/Kg,4.2 gram force and 9.8 gram force and 5.7 gram force and 9.0 gram force and 4.9 gram force and 9.2 gram force and 7.5 gram force and 5.8 gram force
same,"Withdrawal test, test 2",hind paw of mice; [1],6.5 gram force and 4.3 gram force and *10.3 gram force and 7.9 gram force and 8.3 gram force and 7.6 gram force and 4.2 gram force and 6.0 gram force
same,"Withdrawal test, test 3",hind paw of mice; [1],4.2 gram force and 8.1 gram force and *10.5 gram force and 4.5 gram force and 4.3 gram force and 4.4 gram force and 4.9 gram force and *10.2 gram force
same,"Withdrawal test, All group average",hind paw of mice; t = 3 h after 5 mg/Kg,5.79 gram force
same,"Withdrawal test, Average",hind paw of mice; t = 3 h after 5 mg/Kg,6.28 gram force and 6.00 gram force and 4.68 gram force and 5.50 gram force and 5.66 gram force and 5.12 gram force and 6.34 gram force and 5.34 gram force
same,"Withdrawal test, Change from b.l.",hind paw of mice; t = 3 h after 5 mg/Kg,−0.5%
same,"Withdrawal test, Change from b.l.","hind paw of mice; t = 3 h after 5 mg/Kg, listed as morphine",−0.5%
same,"Withdrawal test, test 2",hind paw of mice; t = 3 h after 5 mg/Kg,5.5 gram force (2×) and 6.8 gram force and 4.3 gram force and 6.1 gram force and 5.9 gram force and 4.4 gram force and 5.3 gram force
same,"Withdrawal test, test 4",hind paw of mice; t = 3 h after 5 mg/Kg,5.5 gram force and 4.9 gram force and 4.6 gram force and 4.3 gram force and 7.0 gram force and 5.3 gram force and 6.4 gram force and 5.8 gram force
same,"Withdrawal test, test 5",hind paw of mice; t = 3 h after 5 mg/Kg,6.9 gram force and 8.6 gram force and 5.5 gram force and 5.6 gram force and 4.6 gram force and 5.2 gram force and 6.1 gram force and 5.7 gram force
same,"Withdrawal test, test 6",hind paw of mice; t = 3 h after 5 mg/Kg,7.0 gram force and 4.5 gram force
same,"Withdrawal test, test 1",hind paw of mice; [2],7.2 gram force and 5.3 gram force (2×) and *11.6 gram force and 6.6 gram force and 5.6 gram force and 6.4 gram force and 5.4 gram force
same,"Withdrawal test, test 3",hind paw of mice; [2],6.3 gram force and 4.4 gram force and 4.3 gram force (2×) and 4.9 gram force and 5.2 gram force and 8.4 gram force and 4.5 gram force
same,"Withdrawal test, All group average",hind paw of mice; t = 24 h after 5 mg/Kg,5.09 gram force
same,"Withdrawal test, Average",hind paw of mice; t = 24 h after 5 mg/Kg,5.23 gram force and 4.80 gram force and 5.44 gram force and 5.28 gram force and 4.32 gram force and 6.08 gram force and 4.54 gram force and 5.00 gram force
same,"Withdrawal test, Change from b.l.",hind paw of mice; t = 24 h after 5 mg/Kg,−12.5%
same,"Withdrawal test, Change from b.l.","hind paw of mice; t = 24 h after 5 mg/Kg, listed as morphine",−12.5%
same,"Withdrawal test, test 1",hind paw of mice; t = 24 h after 5 mg/Kg,5.2 gram force (2×) and 4.0 gram force (2×) and 4.3 gram force and 4.1 gram force and 6.9 gram force and 5.4 gram force
same,"Withdrawal test, test 2",hind paw of mice; t = 24 h after 5 mg/Kg,4.7 gram force (3×) and 5.2 gram force and 5.3 gram force and 5.8 gram force and 6.0 gram force and 4.0 gram force
same,"Withdrawal test, test 3",hind paw of mice; t = 24 h after 5 mg/Kg,4.5 gram force and 6.5 gram force and 4.1 gram force (2×) and 4.0 gram force and 4.8 gram force and 5.1 gram force and 4.2 gram force
same,"Withdrawal test, test 6",hind paw of mice; t = 24 h after 5 mg/Kg,6.5 gram force and 4.3 gram force
same,"Withdrawal test, test 4",hind paw of mice; [3],*12.9 gram force and 4.0 gram force and 4.1 gram force and 6.7 gram force and 4.7 gram force (2×) and 4.6 gram force and 7.4 gram force
same,"Withdrawal test, test 5",hind paw of mice; [3],6.5 gram force and 4.3 gram force (2×) and 9.4 gram force and 4.6 gram force and 4.1 gram force and 8.0 gram force and 4.0 gram force
same,Hot plate Avg. 6 mice,"mice; 5 mg/kg oral, t = 0.5 h",14.43 s
same,Hot plate Time,"mice; 5 mg/kg oral, t = 0.5 h, cut-off 30 s",15.7 s and 13.1 s and 10.5 s and 23.8 s and 12.4 s and 11.1 s
same,Hot plate Avg. 6 mice,"mice; 5 mg/kg oral, t = 3 h",14.05 s
same,Hot plate Time,"mice; 5 mg/kg oral, t = 3 h",16.8 s and 11.4 s and 20.5 s and 12.6 s and 14.5 s and 8.5 s
same,Hot plate Avg. 6 mice,"mice; 5 mg/kg oral, t = 6 h",14.25 s
same,Hot plate Time,"mice; 5 mg/kg oral, t = 6 h",12.7 s and 8.0 s and 26.6 s and 19.7 s and 12.0 s and 6.5 s
same,Hot plate Avg. 3 mice,"mice; 5 mg/kg oral, t = 24 h",5.8 s
same,Hot plate Time,"mice; 5 mg/kg oral, t = 24 h",2.4 s and 9.0 s and 5.9 s
same,average increase in WRL compared to baseline (t=0),"mice; 5 mg/kg, 0.5 h",26.9%
same,change in average WRL compared to t=0 at baseline,"mice; 5 mg/kg, 3 h",+23%
same,change in average WRL compared to baseline,"mice; 5 mg/kg, 6 h",+25%
same,average WRL less than baseline,"mice; 5 mg/kg, 24 h, 3 animals",about 50%
